Experimental data from patent US20110046225A1, “Pharmaceutical formulation containing palmitoyl ethanolamide and stearoyl ethanolamide” (VERMONT ITALIA SRL, priority 2008, published 2011).

Columns and labels:
RBL-2H3 cells = assay: inhibition of β-hexosaminidase release in IgE/DNP-stimulated RBL-2H3 mastocyte cells; type: cell-based; conditions: stimulated RBL-2H3 cells, culture medium; for INHIBITION OF β-HEXOSAMINIDASE RELEASE (% on test): 10 μM
Description: More specifically, a RBL-2H3 mastocyte cell line was used to express high-affinity receptors for the IgE immunoglobulins. The interaction of the antigens with the IgE molecules present on the cell surface stimulates secretion by said cells of the pro-inflammatory contents of their intracytoplasmic granules, amongst which significant quantities of: histamine, leukotrienes, prostaglandins and TNF-alfa. The RBL-2H3 therefore represent an excellent cell module for the study of the mechanisms of exocytosis and release of the inflammatory mediators and of the relative modulation, as the case may be. In particular, measurement of the activity by the β-hexosaminidase enzyme was performed, the release of which correlates positively with the secretion of very strong pro-inflammatory mediators such as histamine and TNF-alfa. As already specified, a RBL-2H3 mastocyte cell line was used to express high-affinity receptors for the IgE immunoglobulins, whilst the assessment of cell vitality was recorded by way of the MTT method. The RBL-2H3 cell culture was started with a density amounting to 20,000 cells/well (96 wells) and incubated with IgE-anti-DNP. After about one hour, the antigen (DNP) was introduced into the culture, then after another 30 minutes the culture medium was harvested. Measurement of the activity by the β-hexosaminidase enzyme was performed on the harvested […], the release of which correlated positively with the secretion of very strong pro-inflammatory mediators such as histamine and TNF-alfa. A reduction of the enzymatic activities in the culture medium signifies minor cell degranulation and thus […]. The molecules according to the patent application herein were solubilised in DMSO and both added in variable concentrations to the cell cultures 1 hour prior to the introduction of the antigen.

receptor GPR55 = receptor GPR55 (Homo sapiens, UniProt Q9Y2T6); conditions: Ryberg et al. 2007; cited from earlier work
Chain of receptor GPR55 (Q9Y2T6 whole entry): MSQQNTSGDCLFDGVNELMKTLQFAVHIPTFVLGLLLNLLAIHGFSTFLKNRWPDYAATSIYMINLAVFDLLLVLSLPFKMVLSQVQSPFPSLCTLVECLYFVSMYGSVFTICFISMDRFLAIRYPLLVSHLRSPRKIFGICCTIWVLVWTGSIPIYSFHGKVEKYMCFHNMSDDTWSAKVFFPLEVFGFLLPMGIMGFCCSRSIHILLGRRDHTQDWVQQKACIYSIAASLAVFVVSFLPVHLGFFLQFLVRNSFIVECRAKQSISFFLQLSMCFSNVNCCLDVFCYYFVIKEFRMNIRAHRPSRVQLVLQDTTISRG

[1] = U.S. Pat. No. 5,990,170; 5,679,667; 5,506,224; cited from earlier work
[2] = cited from earlier work

Row | Compound | INHIBITION OF β-HEXOSAMINIDASE RELEASE (% on test) (RBL-2H3 cells) | affinity for GPR55 (receptor GPR55) | inhibition at 10 µM (RBL-2H3 cells; Rattus norvegicus, read-out: INHIBITION OF β-HEXOSAMINIDASE RELEASE (% on test)) | anti-inflammatory activity relative to PEA [1] | solubility in aqueous environments [2]
1 | C[C@@H]1C[C@H]2[C@@H]3CCC4=CC(=O)C=C[C@]4(C)[C@@]3(F)[C@@H](O)C[C@]2(C)[C@@]1(O)C(=O)CO [Desametazone, reference compound] | 40.2% |  |  |  | 
2 | CCCCCCCCCCCCCCCC(=O)NCCO [Palmitoyl ethanolamide (PEA), palmitoyl ethanolamide] |  | nano-mole affinity array | 23.6% |  | 
3 | CCCCCCCCCCCCCCCCCC(=O)NCCO [Stearoyl ethanolamide (SEA), Stearoyl ethanolamide] | 25.3% |  |  | much less active than the lower homologue PEA | extremely scarce
4 | CCCCCc1cc(O)c2c(c1)OC(C)(C)[C@@H]1CCC(C)=C[C@@H]21 [THC, delta-9-tetrahydrocannabinol, reference compound] |  | nano-mole affinity array |  |  | 
